The target in series [1] is IL-17RA/IL17RC dimerization induced by IL-17A (Homo sapiens, UniProt Q16552). As to the kind of experiment: IL-17RA/IL17RC dimerization assay in response to IL-17A (PathHunter Cytokine Receptor Assay). The format is cell-based. Conditions: IL-17A at EC80; read-out: IC50 in IL-17RA/IL7RC dimerization assay. A digest of the protocol: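 Receptor dimerization was read as chemiluminescence from complemented β-galactosidase after IL-17A at EC80 concentration for 6–16 h at 37 °C. Peptides were added 60 min before agonist, at 37 °C or room temperature, with 1% vehicle. Percent inhibition used the EC80-stimulated and vehicle wells as references.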
Chain of IL-17RA/IL17RC dimerization induced by IL-17A (Q16552 24-155): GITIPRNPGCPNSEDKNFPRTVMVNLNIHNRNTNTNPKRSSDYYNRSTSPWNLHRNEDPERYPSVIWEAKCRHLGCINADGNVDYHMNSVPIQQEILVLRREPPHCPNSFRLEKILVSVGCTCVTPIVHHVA

Series [2] is classed as physicochemical. Conditions: pH 7.8. An outline of the steps:
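Peptides dissolved in phosphate buffer pH 7.8 as 10 mM stocks (more dilute for less soluble ones) and stored at 25 °C. Content measured by reversed-phase UHPLC (C18, 0.5% formic acid water/acetonitrile gradient, DAD 220-400 nm, ESI-MS ion trap) after 1:100 dilution to 100 μM, against 100 μM standards, at T0, 3 days and 1 week.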

A short description of series [3]: Isoelectric point, log D and log P (SiriusT3). The class given is physicochemical. The note with it: for IP (isoelectric point): 25±1° C., 0.15 M KCl.
Where [4] appears, read: octanol/ISA water, read-out: logP.
The mark [5] stands for this setting: pH 7.4, pH 7.4, octanol/ISA water, read-out: Log D (7.4).

Like-named read-outs stand apart in the source and are kept apart here. Residues, ends and D or L forms follow the SMILES beside them.

On to `CC[C@H](C)[C@H](NC(C)=O)C(=O)N[C@@H](Cc1c[nH]cn1)C(=O)N[C@H](C(=O)N[C@H](C(=O)N[C@H](C(=O)N1CCC[C@H]1C(=O)N[C@@H](C)C(=O)N[C@@H](CC(=O)O)C(=O)N[C@@H](CC(C)C)C(=O)N[C@@H](Cc1ccc(O)cc1)C(=O)N[C@@H](CC(=O)O)C(=O)N[C@@H](Cc1c[nH]c2ccccc12)C(=O)N[C@H](C(=O)N[C@@H](CC(N)=O)C(=O)N[C@@H](CCCCN)C(N)=O)[C@@H](C)CC)[C@@H](C)CC)[C@@H](C)O)C(C)C` [SEQ ID NO: 6] (Ac-IHVTIPADLYDWINK-NH2), for which, in series [1], the IC50 was < 0.4 µM. Besides, the solubility – broadly, how much of the substance goes into solution per volume – in series [2] is > 10000 µM. In addition, the “IP (isoelectric point)” value in series [3] came to 5.14. In series [3] (logP), the lipophilicity (logP) (usually the decadic logarithm of the partition coefficient of the neutral form, usually between octanol and water) is -0.37. Moreover, the logD in series [3] (pH 7.4, Log D (7.4)) is -3.65.

Regarding `CC[C@H](C)[C@H](NC(=O)[C@H](Cc1c[nH]c2ccccc12)NC(=O)[C@H](CCC(=O)O)NC(=O)[C@H](Cc1ccc(O)cc1)NC(=O)[C@H](CC(C)C)NC(=O)[C@H](CC(=O)O)NC(=O)[C@H](C)NC(=O)[C@@H]1CCCN1C(=O)[C@@H](NC(=O)[C@@H](NC(=O)[C@@H](NC(=O)[C@H](CCSC)NC(=O)[C@@H](NC(C)=O)C(C)C)C(C)C)[C@@H](C)O)[C@@H](C)CC)C(=O)N[C@@H](CCC(=O)O)C(=O)N[C@@H](CCC(=O)O)C(=O)N[C@H](C(=O)N1CCC[C@H]1C(=O)NCC(=O)N[C@@H](C)C(=O)NCC(N)=O)C(C)C` [SEQ ID NO: 27] (Ac-VMVTIPADLYEWIEEVPGAG-NH2), in series [1], the IC50 is < 1 µM. The solubility in series [2] is > 10000 µM. The “IP (isoelectric point)” value in series [3] came out at 5.14. In series [3] (setting [4]), the logP worked out at 0.69. In series [3] (setting [5]), the logD turned out to be 0.148.

As to `CC[C@H](C)[C@H](NC(=O)[C@H](Cc1c[nH]c2ccccc12)NC(=O)[C@H](CCC(=O)O)NC(=O)[C@H](Cc1ccc(O)cc1)NC(=O)[C@H](CC(C)C)NC(=O)[C@H](CC(=O)O)NC(=O)[C@H](C)NC(=O)[C@@H]1CCCN1C(=O)[C@@H](NC(=O)[C@@H](NC(=O)[C@@H](NC(=O)[C@H](CCSC)NC(=O)[C@@H](NC(C)=O)C(C)C)C(C)C)[C@@H](C)O)[C@@H](C)CC)C(=O)N[C@@H](CCC(=O)O)C(=O)N[C@@H](CCC(=O)O)C(=O)N[C@@H](CCCNC(=N)N)C(=O)N[C@@H](CCCNC(=N)N)C(=O)N[C@@H](CCCNC(=N)N)C(=O)N[C@@H](CCCNC(=N)N)C(=O)N[C@@H](CCCNC(=N)N)C(=O)N[C@@H](CCCNC(=N)N)C(=O)N[C@@H](CCCNC(=N)N)C(=O)N[C@@H](CCCNC(=N)N)C(N)=O` [SEQ ID NO: 30] (Ac-VMVTIPADLYEWIEERRRRRRRR-NH2), in series [1], the IC50 was < 1 µM. The solubility in series [2] is ≥ 100 µM. The “IP (isoelectric point)” value in series [3] is reported as 12.96. In addition, in series [3] (setting [5]), the logD was -3.89.

For the compound `CC[C@H](C)[C@H](NC(=O)[C@H](Cc1c[nH]c2ccccc12)NC(=O)[C@H](CCC(=O)O)NC(=O)[C@H](Cc1ccc(O)cc1)NC(=O)[C@H](CC(C)C)NC(=O)[C@H](CC(=O)O)NC(=O)[C@H](C)NC(=O)[C@@H]1CCCN1C(=O)[C@@H](NC(=O)[C@@H](NC(=O)[C@@H](NC(=O)[C@H](CCSC)NC(=O)[C@@H](NC(C)=O)C(C)C)C(C)C)[C@@H](C)O)[C@@H](C)CC)C(=O)N[C@@H](CCC(=O)O)C(=O)N[C@@H](CCC(=O)O)C(=O)N[C@H](C(=O)N[C@@H](Cc1c[nH]c2ccccc12)C(=O)N[C@@H](Cc1c[nH]c2ccccc12)C(=O)N[C@@H](CCC(=O)O)C(=O)N[C@H](C(=O)N[C@@H](Cc1c[nH]c2ccccc12)C(=O)N[C@@H](Cc1c[nH]c2ccccc12)C(N)=O)[C@@H](C)O)[C@@H](C)O` [SEQ ID NO: 23] (Ac-VMVTIPADLYEWIEETWWETWW-NH2), in series [1], the IC50 was < 1 µM. The solubility in series [2] was ≥ 50 µM. The “IP (isoelectric point)” value in series [3] stood at 4.26. In addition, the logP in series [3] (setting [4]) worked out at 1.01. For the same compound, the logD in series [3] (setting [5]) is -2.24.

With `CC[C@H](C)[C@H](NC(=O)[C@H](Cc1c[nH]c2ccccc12)NC(=O)[C@H](CCC(=O)O)NC(=O)[C@H](Cc1ccc(O)cc1)NC(=O)[C@H](CC(C)C)NC(=O)[C@H](CC(=O)O)NC(=O)[C@H](C)NC(=O)[C@@H]1CCCN1C(=O)[C@@H](NC(=O)[C@@H](NC(=O)[C@@H](NC(=O)[C@H](CCSC)NC(=O)[C@@H](NC(C)=O)C(C)C)C(C)C)[C@@H](C)O)[C@@H](C)CC)C(=O)N[C@@H](CCC(=O)O)C(=O)N[C@@H](CCC(=O)O)C(=O)N[C@H](C(=O)N1CCC[C@H]1C(=O)NCC(=O)N[C@@H](Cc1c[nH]c2ccccc12)C(=O)NCC(N)=O)C(C)C` [SEQ ID NO: 24] (Ac-VMVTIPADLYEWIEEVPGWG-NH2), the IC50 in series [1] is < 1 µM. Moreover, the solubility in series [2] is < 50 µM. Besides, in series [3], the “IP (isoelectric point)” value was determined as 5.14. Further, in series [3] (setting [4]), the logP stood at 2.45. Further, the logD in series [3] (setting [5]) was determined as 2.15.

As for `CC[C@H](C)[C@H](NC(C)=O)C(=O)N[C@@H](Cc1c[nH]cn1)C(=O)N[C@H](C(=O)N[C@H](C(=O)N[C@H](C(=O)N1CCC[C@H]1C(=O)N[C@@H](C)C(=O)N[C@@H](CC(=O)O)C(=O)N[C@@H](CC(C)C)C(=O)N[C@@H](Cc1c[nH]c2ccccc12)C(=O)N[C@@H](CC(=O)O)C(=O)N[C@@H](Cc1c[nH]c2ccccc12)C(=O)N[C@H](C(=O)N[C@@H](CC(N)=O)C(=O)N[C@@H](CCC(=O)O)C(N)=O)[C@@H](C)CC)[C@@H](C)CC)[C@@H](C)O)C(C)C` [SEQ ID NO: 12, IHVTIPADLWDWINE] (Ac-IHVTIPADLWDWINE-NH2), the IC50 in series [1] is < 0.2 µM. The solubility in series [2] was ≥ 10 µM. For the same compound, in series [3], the “IP (isoelectric point)” value came to 3.66. The compound further returned a log partition coefficient (logP) in series [3] (logP) of 1.31. Further, in series [3] (pH 7.4, Log D (7.4)), the logD was -5.24.

In the case of `CC(=O)N[C@H](C(=O)N[C@@H](Cc1c[nH]cn1)C(=O)N[C@H](C(=O)N[C@H](C(=O)N[C@@H](Cc1ccccc1)C(=O)N1CCC[C@H]1C(=O)N[C@@H](C)C(=O)N[C@@H](CC(=O)O)C(=O)N[C@@H](CC(C)C)C(=O)N[C@@H](Cc1c[nH]c2ccccc12)C(=O)N[C@@H](CCC(=O)O)C(=O)N[C@@H](Cc1c[nH]c2ccccc12)C(=O)N[C@H](C(=O)N[C@@H](CCCNC(=N)N)C(=O)N[C@@H](CCCNC(=N)N)C(N)=O)C(C)C)[C@@H](C)O)C(C)C)C(C)C` [SEQ ID NO: 114] (Ac-VHVTFPADLWEWVRR-NH2), the IC50 in series [1] was < 0.5 µM. Further, the solubility in series [2] was < 50 µM. The “IP (isoelectric point)” value in series [3] was found to be 8.99. For the same compound, the logP in series [3] (setting [4]) is -0.21. For the same compound, the logD in series [3] (setting [5]) is -3.59.

As to `CC[C@H](C)[C@H](NC(=O)[C@H](Cc1c[nH]c2ccccc12)NC(=O)[C@H](CCC(=O)O)NC(=O)[C@H](Cc1ccc(O)cc1)NC(=O)[C@H](CC(C)C)NC(=O)[C@H](CC(=O)O)NC(=O)[C@H](C)NC(=O)[C@@H]1CCCN1C(=O)[C@@H](NC(=O)[C@@H](NC(=O)[C@@H](NC(=O)[C@H](CCSC)NC(=O)[C@@H](NC(=O)[C@H](C)NC(=O)[C@H](CCCCN)NC(=O)[C@H](C)NC(=O)[C@H](C)NC(=O)[C@H](CCCCN)NC(=O)[C@H](CCCCN)NC(=O)[C@H](CCCNC(=N)N)NC(=O)[C@H](C)NC(C)=O)C(C)C)C(C)C)[C@@H](C)O)[C@@H](C)CC)C(=O)N[C@@H](CCC(=O)O)C(=O)N[C@@H](CCC(=O)O)C(N)=O` [SEQ ID NO: 31] (Ac-ARKKAAKAVMVTIPADLYEWIEE-NH2), the IC50 in series [1] was < 1 µM. Also, in series [2], the solubility is > 10000 µM. The “IP (isoelectric point)” value in series [3] is given as 12.5. In series [3] (setting [4]), the lipophilicity (logP) is -4.9. Also, in series [3] (setting [5]), the logD was -3.59.

(Values after patent US11236129B2, “IL-17A binding peptides and medical uses thereof” (Dompe' Farmaceutici S.P.A., priority 2018, dated 2022).)
